In patent publication US20070202179A1, “Low Dose Pharmaceutical Products” (priority 2004, published 2007):

Biological target: T1, human PPAR alpha (Homo sapiens, UniProt Q07869)
T1 sequence (Q07869 1-468): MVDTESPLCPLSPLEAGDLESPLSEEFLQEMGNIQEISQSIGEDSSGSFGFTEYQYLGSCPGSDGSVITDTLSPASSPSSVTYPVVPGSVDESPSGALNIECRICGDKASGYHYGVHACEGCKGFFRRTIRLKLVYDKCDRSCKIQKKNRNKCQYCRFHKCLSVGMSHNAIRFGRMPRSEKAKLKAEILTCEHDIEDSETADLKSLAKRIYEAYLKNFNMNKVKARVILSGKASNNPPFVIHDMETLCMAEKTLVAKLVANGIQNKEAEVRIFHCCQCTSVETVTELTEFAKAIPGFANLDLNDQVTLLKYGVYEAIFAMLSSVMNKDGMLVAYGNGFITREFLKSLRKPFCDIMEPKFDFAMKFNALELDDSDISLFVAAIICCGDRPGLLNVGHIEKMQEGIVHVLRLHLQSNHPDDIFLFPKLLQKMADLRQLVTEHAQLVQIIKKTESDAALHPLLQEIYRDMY
Experiment: Effectiveness of Compound 1 at very low daily dosage regimes
Type: in vivo
Conditions: investigated for dyslipidemia, syndrome X and atherosclerosis
Experimental: The compound of formula (1) is a particularly preferred PPAR alpha agonist and is described in WO 01/40207 as being of use in human PPAR alpha mediated diseases. The dosage regime contemplated in WO 01/40207 is 0.02-5000 mg per day. […] Thus the invention further provides a pharmaceutical composition comprising less than 1-100 μg Compound (1) or pharmaceutically acceptable salts, solvates and physiologically functional derivatives thereof together with a pharmaceutically acceptable carrier. Preferably the composition comprises less than 20 μg, more preferably 1-18 μg, most preferably 1-10 μg.

- Dosage regime at which the compound is effective: less than 0.02 mg per day
SMILES: Cc1nc(-c2ccc(C(F)(F)F)cc2)sc1C(=O)NCc1ccc(OC(C)(C)C(=O)O)cc1 [Compound 1, 2-methyl-2-[4-{[(4-methyl-2-[4-trifluoromethylphenyl]-thiazol-5-ylcarbonyl)amino]methyl}phenoxy]propionic acid]
